Laboratory results from patent US7550425B2, “Diuretic peptide conjugates” (Zealand Pharma A/S, priority 2000, dated 2009).
Where two headings read alike, the source gives them in different places.

Tests used:
[1] = tested on: nociceptin-induced smooth muscle relaxation in mouse vas deferens; test: Mouse vas deferens assay: antagonism of nociceptin-induced relaxation (Schild pA2)
Method: The vas deferens from male NMRI albino mice weighing 30-40 g were placed in a SCHULER organ bath Type 809, Hugo Sachs Elektronik, Germany, and perfused with a 37° C., modified Krebs solution (NaCl 6,9 g/L, KCl 0.35 g/L, KH2PO4 0.16 g/L, NaHCO3 2.1 g/L, Glucose H2O 2.0 g/L, CaCl2 2.52 mL/L). The solution was gassed with carbogen (95% O2 and 5% CO2) throughout the experiment. The tissue was electrically stimulated through two silver electrodes directly in the organ bath using a HSE Stimulator I Type 215. Stimulation of the tissue was performed by applying a supramaximal voltage (15 Volts) in trains of 10 square pulses every 60 s, each of 1 ms duration with a frequency of […]. Concentration-response curves were performed by adding test substances that relax mouse vas deferens smooth muscles cumulatively to the organ baths. The test substances used in the assay were nociceptin in an isotonic saline solution, Compound 1 (as the trifluoroacetate in an isotonic saline solution), Compound 2 (as the trifluoroacetate in an isotonic saline solution), and the hexapeptide Ac-RYYRWK-NH2 (SEQ ID NO: 1) (as the trifluoroacetate in an isotonic saline solution).
The effects of Ac-RYYRWK-NH2 (SEQ ID NO: 1) and Compound 1 on nociceptin-induced relaxation in the mouse vas deferens assay were also tested. […] Using the Schild equation ^[7], the pA2 values which indicates affinity of a compound as an antagonist were calculated.

[2] = tested on: conscious Sprague Dawley rats; assay type: in vivo, rat; on Behavioral changes: key: 0 indicates a lack of response; (↓) indicates a very weak decrease; ↓ indicates a weak decrease; ↑ indicates a weak increase; ↑↑ indicates a strong increase; on Food intake: key: 0 indicates a lack of response; (↓) indicates a very weak decrease; ↓ indicates a weak decrease; ↑ indicates a weak increase; ↑↑ indicates a strong increase; on UNaV: key: 0 indicates a lack of response; (↓) indicates a very weak decrease; ↓ indicates a weak decrease; ↑ indicates a weak increase; ↑↑ indicates a strong increase
Method: In the conscious rat model, the animal is chronically instrumented with catheters in the urinary bladder, the femoral artery, and the femoral vein. The animal receives a continuous i.v. infusion with isotonic saline, 50 μl/min. Urine is collected in vials in consequtive urine collection periods of 10 min each. After two control periods, the test compound is administered and fractionated urine collections (10 min periods) are continued for at least two hours. Urinary concentrations of sodium and potassium are determined by flame photometry (Instrumentation Laboratory 943) using caesium as internal standard.
The diuretic effect of the peptide conjugates of the invention has been tested in conscious rats, where Compound 1 elicits a powerful and sustained diuretic response. Cardiovascular and renal responses produced by i.v. infusion of nociceptin (Phoenix Pharmaceuticals) and Compound 1 have been studied in conscious Sprague Dawley rats. The results are shown in FIGS. 2 to 8 wherein HR is heart rate, MAP is mean arterial pressure, V is urine flow rate, UNaV is urinary excretion rate of sodium, RSNA is renal sympathetic nerve activity expressed as % of the control level, Cosm is the osmolar clearance, and CH2O is free water clearance.
Furthermore, the effects of i.v. bolus administration of nociceptin (30 and 100 nmol/kg, Phoenix Pharmaceuticals) and nociceptin-NH2 (30 nmol/kg) on heart rate, arterial pressure and RSNA were studied in groups of 6 conscious Sprague-Dawley rats.
[…] After stabilization of urine flow rate and urinary sodium excretion, urine was collected during a 20-min control period. After this, the i.v. bolus injection was given or the i.v. infusate was switched to a solution of isotonic saline containing Compound 1 (i.v. infusion experiments). From the time of drug administration, experimental urine samples (10-min consecutive periods) were taken for 80 min.
One hour prior to the start of each experiment a food pellet (standard rodent chow) was placed within access to the rat though a hole in the rat holder. The number and time of feeding responses (i.e., times in which the rat began to eat the food pellet) was recorded before, and after drug administration. If a positive feeding response was observed, the pellet was removed from the restrainer to prevent feeding-induced alterations in heart rate and/or mean arterial pressure. At 10-min intervals, the food pellet was presented to the rat to determine the duration of the feeding response.

hORL1 receptor = hORL1 receptor (Homo sapiens, UniProt P41146); test: Inhibition of forskoline-induced cAMP formation in HEK293 cells expressing human ORL1; assay type: cell-based; set-up: expressed in transfected cells; host or cells: HEK293; conditions: transfected HEK293 cells
hORL1 receptor, sequence (P41146 whole entry): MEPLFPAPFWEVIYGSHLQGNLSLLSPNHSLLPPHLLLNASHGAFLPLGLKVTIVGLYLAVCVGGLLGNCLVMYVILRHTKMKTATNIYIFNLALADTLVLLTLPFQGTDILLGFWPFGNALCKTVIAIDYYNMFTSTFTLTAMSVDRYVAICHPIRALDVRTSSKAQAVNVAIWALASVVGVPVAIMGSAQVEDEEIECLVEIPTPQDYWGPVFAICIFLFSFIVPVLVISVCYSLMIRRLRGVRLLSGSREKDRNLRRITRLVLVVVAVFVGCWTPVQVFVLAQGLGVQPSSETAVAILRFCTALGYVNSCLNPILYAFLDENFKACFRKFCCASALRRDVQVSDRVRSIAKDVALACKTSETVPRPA

[3] = I.v. bolus injection 30 nmol/kg
[4] = I.v. infusion 0.1 nmol/kg/min (n = 6)
[5] = I.v. infusion 1.0 nmol/kg/min (n = 6)
[6] = I.v. infusion 10 nmol/kg/min (n = 6)
[7] = i.v. infusion 1 and 0.1 nmol/kg/min, FIG. 3

Substance: Ac-RYYRWKKKKKKK-NH2 [Compound 1, Ac-RYYRWKKKKKKK-NH2]
- pA2 value ([1]; Schild equation, antagonism of nociceptin-induced relaxation, n = 4): 9.5 (n = 4)
- fold more potent as an antagonist than Ac-RYYRWK-NH2 ([1]; nociceptin-induced smooth muscle relaxation, MVD assay): about 50 fold
- Δ Blood Pressure (%) ([2]; I.v. bolus 10 nmol/kg (n = 6)): −4 ± 1%
- Δ K excretion (%) ([2]; I.v. bolus 10 nmol/kg (n = 6)): −35 ± 4%
- Δ Na excretion (%) ([2]; I.v. bolus 10 nmol/kg (n = 6)): −44 ± 3%
- Δ Urine Flow (%) ([2]; I.v. bolus 10 nmol/kg (n = 6)): +83 ± 42%
- Δ Blood Pressure (%) ([2]; I.v. bolus 30 nmol/kg (n = 4)): −8 ± 2%
- Δ K excretion (%) ([2]; I.v. bolus 30 nmol/kg (n = 4)): −20 ± 7%
- Δ Na excretion (%) ([2]; I.v. bolus 30 nmol/kg (n = 4)): −51 ± 7%
- Δ Urine Flow (%) ([2]; I.v. bolus 30 nmol/kg (n = 4)): +207 ± 11%
- Δ Blood Pressure (%) ([2]; I.v. bolus 100 nmol/kg (n = 6)): −12 ± 2%
- Δ K excretion (%) ([2]; I.v. bolus 100 nmol/kg (n = 6)): −52 ± 5%
- Δ Na excretion (%) ([2]; I.v. bolus 100 nmol/kg (n = 6)): −70 ± 2%
- Δ Urine Flow (%) ([2]; I.v. bolus 100 nmol/kg (n = 6)): +249 ± 60%
- Δ Blood Pressure (%) ([2]; I.v. bolus 300 nmol/kg (n = 4)): −15 ± 3%
- Δ K excretion (%) ([2]; I.v. bolus 300 nmol/kg (n = 4)): −79 ± 6%
- Δ Na excretion (%) ([2]; I.v. bolus 300 nmol/kg (n = 4)): −85 ± 6%
- Δ Urine Flow (%) ([2]; I.v. bolus 300 nmol/kg (n = 4)): +127 ± 47%
- Behavioral changes [2, 3]: 0
- Food intake [2, 3]: 0
- HR [2, 3]: 0
- MAP [2, 3]: 0
- Behavioral changes ([2]; I.v. infusion 0.1 nmol/kg/min): 0
- Food intake ([2]; I.v. infusion 0.1 nmol/kg/min): 0
- HR ([2]; I.v. infusion 0.1 nmol/kg/min): 0
- UNaV ([2]; I.v. infusion 0.1 nmol/kg/min): 0
- Δ Blood Pressure (%) [2, 4]: −5 ± 4%
- Δ K excretion (%) [2, 4]: −16 ± 6%
- Δ Na excretion (%) [2, 4]: −5 ± 3%
- Δ Urine Flow (%) [2, 4]: +99 ± 21%
- Behavioral changes ([2]; I.v. infusion 1.0 nmol/kg/min): 0
- Food intake ([2]; I.v. infusion 1.0 nmol/kg/min): 0
- HR ([2]; I.v. infusion 1.0 nmol/kg/min): 0
- Δ Blood Pressure (%) [2, 5]: −10 ± 2%
- Δ K excretion (%) [2, 5]: −51 ± 9%
- Δ Na excretion (%) [2, 5]: −64 ± 7%
- Δ Urine Flow (%) [2, 5]: 210 ± 51%
- Δ Blood Pressure (%) [2, 6]: −15 ± 3%
- Δ K excretion (%) [2, 6]: −68 ± 15%
- Δ Na excretion (%) [2, 6]: −79 ± 6%
- Δ Urine Flow (%) [2, 6]: 160 ± 68%
- bradycardia and hypotension to an i.v. bolus injection of nociceptin ([2]; after 120 min of i.v. infusion 1 nmol/kg/min, n=6): completely blocked
- water diuretic response ([2]; continuous i.v. infusion 1 and 10 nmol/kg/min): selective water diuretic response
- heart rate, arterial pressure and RSNA ([2]; i.v. bolus 30 nmol/kg): did not produce any changes in heart rate, blood pressure or RSNA
- stimulation of appetite or behavioral changes ([2]; i.v. bolus 30 nmol/kg): do not show any signs of stimulation of appetite or behavioral changes
- diuretic (V) and antinatriuretic (UNaV) response ([2]; i.v. bolus 30 nmol/kg, data not shown): marked diuretic (V) and antinatriuretic (UNaV) response
- appetite, sedation, behavioral changes ([2]; i.v. infusion 1 and 0.1 nmol/kg/min): no signs of increased appetite, sedation, or behavioral changes
- HR response [2, 7]: little effect on HR
- MAP response [2, 7]: slight, but significant reduction in MAP
- diuretic (V) and antinatriuretic (UNaV) responses [2, 7]: significant diuretic (V μl/min) and antinatriuretic responses
- fold more potent than nociceptin in producing similar magnitude diuretic and antinatriuretic responses ([2]; i.v. infusion, FIGS. 5 and 6): approximately 10 fold
- duration of the diuretic effect ([2]; i.v. infusion, compared with nociceptin): tended to persist for a greater duration than that of i.v. nociceptin infusion
- relative maximum relative to nociceptin (hORL1 receptor): 92%
